Where “and” joins values, the source holds several entries; their conditions need not be identical. Equal values may be shown once.
Columns and labels:
Assay type in all cases: physicochemical
[1] = Fluorescent coloring material content causing concentration quenching; details: image printed on a recording material
Procedure: The following respective components as ink composition to be used were mixed and sufficiently stirred, and the resultant was dissolved and/or dispersed. After that, the resultant was filtered through a Phloropore filter (trade name; manufactured by Sumitomo Electric Industries, Ltd.) having a pore size of 0.1 μm under pressure to prepare each ink. An ink 1, an ink 2, an ink 3, and an ink 5 were defined as inks of Examples and an ink 4 was defined as Reference Example. The content of each fluorescent coloring material in ink for causing the concentration quenching of a fluorescent image printed on a recording material is 0.3% by mass or more for C.I. Acid Red 52, 2.0% by mass or more for C.I. Acid Red 92, or more than 2.0% by mass for the compound (A).
In each of the above ink compositions, the fluorescence intensity of each of the inks 1 to 4 was measured by means of a commercially available fluorescence measuring device […] (trade name; manufactured by JASCO Corporation).

[2] = Fluorescent emission and excitation spectra of evaporated ink (FP-750); details: standard excitation wavelength 254 nm
Procedure: At first, a predetermined amount (in this case, 0.3% by mass with respect to the solution) of C.I. Acid Red 52 (AR52) as the first fluorescent coloring material was dissolved into an aqueous solution (an organic solvent such as glycerin and purified water), followed by heating at 60° C. to completely vaporize water content, resulting in ink (hereinafter, referred to as evaporated ink).
The fluorescent emission spectra and excitation spectra of the first and second fluorescent coloring materials were measured using a fluorometer FP-750 (trade name; manufactured by JASCO Corporation). Each measurement sample was an ink from which water content was evaporated to remove the influence of water on the measurement.

[3] = Light absorption spectrum of coloring materials
Procedure: Next, the multiple fluorescent coloring materials will be described more specifically with reference to multiple fluorescence examples and reference examples. Here, measurement values obtained with purified water diluted solutions of coloring materials were used for an absorption wavelength region, a maximum absorption wavelength region, and a fluorescence wavelength region. Using an absorption spectrometer, absorption wavelengths were measured. A diluted solution was prepared in such a manner that the absorbance thereof was in the range of 0.5 to 0.7. A higher region from a base line as the absorption peak of the coloring material was defined as an absorption wavelength region, and the peak value was defined as a maximum absorption wavelength. In addition, for fluorescence wavelengths, the measurement conditions were set so that the fluorescence intensities were not beyond the measurement threshold value. Then, fluorescence wavelengths were measured by using the diluted solution used in the measurement of absorbance and by fixing the excitation wavelengths of the first and second coloring materials at predetermined wavelengths. A region higher than the base line was defined as a fluorescent emission wavelength region.
The absorption wavelength regions of the first and second coloring materials were measured using a spectrophotometer U-3200 (trade name; manufactured by Hitachi Ltd.) after the dye had been diluted 100,000-fold with purified water. The absorption wavelength region of the first coloring material ranged from 450 to 620 nm, and the maximum absorption wavelength thereof was 565 nm. In addition, the absorption wavelength region of the second coloring material ranged from 300 to 450 nm, and the maximum absorption wavelength thereof was 372 nm.

fluorescent emission peak wavelength [2]	maximum absorption wavelength ([3]; dye diluted 100,000-fold with purified water, spectrophotometer U-3200)	absorption peak wavelength ([3]; from FIGS. 5, 6, 12, listed as AR52)	absorption peak wavelength ([3]; from FIGS. 5, 6, 12)	absorption spectrum range, visible light ([3]; from FIGS. 5, 6, 12)	SMILES	content of fluorescent coloring material in ink causing concentration quenching of a printed fluorescent image [1]
600 nm	565 nm	565 nm and ~560 nm	–	–	CCN(CC)c1ccc2c(-c3ccc(S(=O)(=O)[O-])cc3S(=O)(=O)[O-])c3ccc(=[N+](CC)CC)cc-3oc2c1.[Na+] [C.I. Acid Red 52]	≥ 0.3 % by mass
–	–	–	–	–	O=C([O-])c1c(Cl)c(Cl)c(Cl)c(Cl)c1-c1c2cc(Br)c(=O)c(Br)c-2oc2c(Br)c([O-])c(Br)cc12.[Na+].[Na+] [C.I. Acid Red 92]	≥ 2.0 % by mass
530 nm	–	–	490 nm	≤ 525 nm	O=C([O-])c1ccccc1-c1c2ccc(=O)cc-2oc2cc([O-])ccc12.[Na+].[Na+] [C.I. Acid Yellow 73, reference compound]	–
